Measured values as given in the supplement of paper PMC6045584.
± gives the standard deviation of the averaged measurements.

How the values were obtained:
FORETINIB = compound: COc1cc2c(Oc3ccc(NC(=O)C4(C(=O)Nc5ccc(F)cc5)CC4)cc3F)ccnc2cc1OCCCN1CCOCC1 [FORETINIB]; assay: surviving fraction relative to DMSO-only wells; higher = less growth inhibition; conditions: exposure time: 5 days
How it was run: (§1)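 Tumour cell lines were grown to log phase and seeded at 250–500 cells per well in 384-well plates. They were exposed continuously to inhibitors at 0.5, 1, 5, 10, 50, 100, 500 and 1000 nM for five days, beginning 24 hours after seeding. Surviving fraction is CellTiter-Glo luminescence normalised to the median of DMSO-only wells.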

OLAPARIB = compound: O=C(c1cc(Cc2n[nH]c(=O)c3ccccc23)ccc1F)N1CCN(C(=O)C2CC2)CC1 [OLAPARIB]; assay: as above; conditions: exposure time: 5 days
How it was run: as §1

| Test System | surviving fraction (FORETINIB; 0.5 nM) | surviving fraction (FORETINIB; 1 nM) | surviving fraction (FORETINIB; 5 nM) | surviving fraction (FORETINIB; 10 nM) | surviving fraction (FORETINIB; 50 nM) | surviving fraction (FORETINIB; 100 nM) | surviving fraction (FORETINIB; 500 nM) | surviving fraction (FORETINIB; 1000 nM) | surviving fraction (OLAPARIB; 0.5 nM) | surviving fraction (OLAPARIB; 1 nM) | surviving fraction (OLAPARIB; 5 nM) | surviving fraction (OLAPARIB; 10 nM) | surviving fraction (OLAPARIB; 50 nM) | surviving fraction (OLAPARIB; 100 nM) | surviving fraction (OLAPARIB; 500 nM) | surviving fraction (OLAPARIB; 1000 nM) |
| --- | --- | --- | --- | --- | --- | --- | --- | --- | --- | --- | --- | --- | --- | --- | --- | --- |
| CCK81 LARGE INTESTINE | 0.867 ± 0.085 | 0.729 ± 0.084 | 0.719 ± 0.059 | 0.726 ± 0.13 | 0.793 ± 0.065 | 0.757 ± 0.025 | 0.559 ± 0.043 | 0.338 ± 0.083 |  |  |  |  |  |  |  |  |
| HMT3552 BREAST | 1.02 ± 0.069 | 1.03 ± 0.05 | 1.02 ± 0.017 | 0.928 ± 0.12 | 0.955 ± 0.058 | 0.971 ± 0.013 | 0.599 ± 0.034 | 0.114 ± 0.0027 | 0.96 | 0.909 | 0.92 | 0.865 | 1.07 | 0.858 | 0.913 | 0.742 |
| G292 BONE | 1.01 ± 0.049 | 0.963 ± 0.051 | 1.04 ± 0.015 | 1.02 ± 0.046 | 0.905 ± 0.03 | 0.839 ± 0.023 | 0.351 ± 0.018 | 0.171 ± 0.02 | 1.01 ± 0.014 | 1.01 ± 0.037 | 1.01 ± 0.016 | 1.02 ± 0.017 | 0.977 ± 0.022 | 0.971 ± 0.046 | 0.872 ± 0.037 | 0.831 ± 0.02 |
| HCC38 BREAST | 1.05 ± 0.18 | 1.01 ± 0.34 | 0.885 ± 0.2 | 1.11 ± 0.24 | 1.03 ± 0.41 | 0.901 ± 0.15 | 0.521 ± 0.077 | 0.428 ± 0.12 | 1.13 ± 0.12 | 1.04 ± 0.039 | 1.05 ± 0.26 | 1.05 ± 0.22 | 0.656 ± 0.17 | 0.6 ± 0.094 | 0.441 ± 0.098 | 0.432 ± 0.074 |
| HS578T BREAST | 1.01 ± 0.084 | 1.09 ± 0.079 | 1.2 ± 0.19 | 1.18 ± 0.038 | 1.16 ± 0.17 | 1.12 ± 0.21 | 0.655 ± 0.088 | 0.585 ± 0.039 | 0.886 ± 0.076 | 0.911 ± 0.043 | 0.937 ± 0.14 | 0.853 ± 0.12 | 0.837 ± 0.079 | 0.87 ± 0.061 | 0.713 ± 0.093 | 0.705 ± 0.066 |
| HMLE3 BREAST | 1.08 ± 0.031 | 1.15 ± 0.075 | 1.11 ± 0.023 | 1.07 ± 0.011 | 0.913 ± 0.1 | 0.86 ± 0.054 | 0.558 ± 0.076 | 0.168 ± 0.023 | 1.01 ± 0.015 | 0.976 ± 0.039 | 1.09 ± 0.097 | 1.06 ± 0.057 | 0.972 ± 0.042 | 0.962 ± 0.12 | 0.911 ± 0.07 | 0.835 ± 0.072 |
| HS57T BREAST | 1.05 ± 0.066 | 1.09 ± 0.08 | 1.15 ± 0.03 | 1.07 ± 0.045 | 1.06 ± 0.06 | 1.02 ± 0.083 | 0.515 ± 0.039 | 0.47 ± 0.024 | 1.09 ± 0.06 | 1.11 ± 0.036 | 1.09 ± 0.05 | 1.13 ± 0.05 | 1.1 ± 0.022 | 1.04 ± 0.053 | 0.999 ± 0.024 | 0.914 ± 0.067 |
| HCC70 BREAST | 1.08 ± 0.04 | 1.13 ± 0.023 | 1.13 ± 0.043 | 1.11 ± 0.046 | 1.17 ± 0.066 | 1.2 ± 0.044 | 1.1 ± 0.1 | 0.718 ± 0.16 | 1.15 ± 0.043 | 1.08 ± 0.038 | 1.13 ± 0.082 | 1.15 ± 0.049 | 1.1 ± 0.16 | 1.05 ± 0.064 | 0.983 ± 0.069 | 0.928 ± 0.12 |
